Results taken from publication PMC7170889, “Synthesis and evaluation of designed PKC modulators for enhanced cancer immunotherapy” (Nature Communications, 2020).
Like-named read-outs stand apart in the source and are kept apart here.

Experiments:
[1] = system: CD22 surface expression in JB cells; test: CD22 surface expression in JB cells (flow cytometry); details: 1 nM or 10 nM, 48 h, n = 6
Experimental: (§19) Compound was washed out and cells were sub-cultured for the indicated times. […] CD22 surface expression was then assayed by flow cytometry (n = 3 biological replicates; data presented as mean values ± SE). c JB cells were incubated with 1 nM (blue bars) or 10 nM (orange bars) of compound for 48 h. CD22 surface expression was then assayed by flow cytometry (n = 6 biological replicates; data presented as mean values ± SE). d 2F7 cells were incubated with 1 nM (blue bars) or 10 nM (orange bars) of compound for 48 h. CD22 surface expression was then assayed by flow cytometry (n = 6 biological replicates; data presented as mean values ± SE).
(§20) JB is an Epstein–Barr virus (EBV)-negative AIDS-lymphoma cell line originally grown out of a bone marrow sample derived from an HIV+ individual, which harbors the Burkitt lymphoma translocation[66]. 2F7 is an AIDS-associated non-Hodgkin’s lymphoma cell line of the Burkitt subtype, which is positive for EBV[67].
(§21) AIDS-NHL cell lines were incubated in IF10 medium, consisting of IMDM
(§22) medium (Life technologies) containing 10% fetal bovine serum (FBS, Omega Scientific), 100
(§23) units/mL of penicillin, and 100 μg/ml of streptomycin (Invitrogen). Cells were incubated at 37 °C
(§24) AIDS-NHL cells were cultured in a u-bottomed 96-well
(§25) tissue culture plates with a cell density of 200,000 cells/well in a 200 μL volume of IF10 media
(§26) were exposed to compound for the either 24 or 48 h before staining and flow cytometric analysis
(§27) Cells in each well were washed with phosphate buffered saline (PBS) containing
(§28) 2% FBS, then cells were centrifuged for 9 min at 233 xg and resuspended in 50 μL of a 1:1 dilution
(§29) of phosphate buffered saline (PBS): Human AB serum (Sigma).
(§30) cells were washed and fixed in 2% paraformaldehyde. Stained samples were stored at 4 °C.
(§31) cytometry samples were analyzed using a FACSCelesta (BD Biosciences) flow cytometer and data
(§32) were analyzed using FlowJo software (version 10).

PKCα = biological target: T1, PKCα (Homo sapiens, UniProt P17252); test: PKC competitive binding assay with [3H]-phorbol dibutyrate (PKCα)
T1 construct: purchased Invitrogen
Experimental: (§1) With a panel of compounds bearing diverse functionality at C13, we began to explore how these modifications affect PKC binding and biological function. Because an obvious prerequisite for PKC pathway involvement is binding to PKC, compounds were initially evaluated for PKC affinity in a cell-free competitive binding assay with tritiated phorbol dibutyrate ([^3H]-PDBu). Assays were performed with representative members of both the conventional (PKCα) and novel (PKCδ) PKC families. Subsequently, compounds were assayed for PKC isoform translocation in real time in living cells using an optical assay. Translocation to the plasma membrane is the hallmark of PKC activation[18],[57],[60] and therefore monitoring the subcellular localization of a PKCδ-GFP fusion protein via confocal microscopy offers a convenient method for determining whether a compound enters a cell and engages its PKC isoform target. Finally and of clinical significance, we also determined the effect of compounds on CD22 surface expression in vitro in NALM6 cells, an ALL cell line previously studied in connection with CD22-targeted CAR T cell therapy, and two additional lymphoma cell lines[11],[31],[65].
(§2) PKC Binding Assay Protocol […]
(§3) competition with 3H-phorbol-12,13-dibutyrate (3H-PDBu) as described below. This procedure entails a glass-fiber filtration method to determine bound radioligand.
(§4) Preparation of PKC binding assay buffer
(§5) To a 50 mL polypropylene tube was added Tris-HCl (pH 7.4, 1 M, 1 mL), KCl (1 M, 2 mL), CaCl2 (0.1 M, 30 μL), and bovine serum albumin (BSA, 40 mg, Sigma-Aldrich). This mixture was diluted to 20 mL with deionized H2O and mixed gently. The buffer was stored on ice until use. The final […]
(§6) Supplementary Table1. PKC binding assay buffer composition.
(§7) Preparation of phosphatidylserine (PS) vesicles
(§8) For every two assays, 3.5 mg phosphatidylserine (Avanti Polar Lipids, porcine, 25 mg/mL CHCl3 solution) was concentrated by removing chloroform under a stream of nitrogen followed by reduced pressure. The solid PS was suspended as vesicles in freshly prepared PKC binding assay buffer (3.5 mL) by sonicating six times for 30 sec, with a 30 sec rest between sonications (Branson Sonifier 250, power = 2, 50% duty cycle). The resulting milky cloudy mixture (1 mg/mL) was stored […]
(§9) Preparation of PKC isoform solution
(§10) Assay PKC was prepared by dissolving a 4 μg aliquot of the indicated recombinant human PKC isoform (Invitrogen) into 11.6 mL of PKC binding assay buffer (this amount is sufficient for two assays). The diluted PKC was stored on ice for immediate use.
(§11) Preparation of 3H-PDBu solution
(§12) 3H-PDBu (American Radiolabeled Chemicals, Inc.; 1 mCi/mL acetone solution; specific activity: […]) was diluted 10-fold with DMSO. The resulting 500 nM stock solution was further diluted with DMSO to 30 nM.
(§13) Preparation of analog compound dilutions
(§14) Compound dilutions were prepared by serially diluting from a chosen "high" concentration by factors of 3 or 4. For each analog compound, seven concentrations were used to define the […]
(§15) To a polypropylene tube was added 3.3 mL of 1 mg/mL PS vesicles solution, 11 mL of PKC isoform solution, and 1.1 mL of 30 nM 3H-PDBu solution were added. The resulting solution was vortexed to mix and stored on ice.
(§16) PKC binding assay protocol
(§17) - Glass-fiber filters (Whatman GF/B) were prepared by soaking them in a solution of aqueous polyethyleneimine (10% by vol, 18 mL) in deionized water (600 mL) for ≥1h.
(§18) - 500 mL "rinsing buffer" of 20 mM Tris, pH 7.4 was cooled on ice for the duration of the incubation period and for the remainder of the assay.
Triplicate data points were obtained for each analog concentration. For each data point, 280 μL of "Master Mix" Solution and 20 μL of analog compound at a specified concentration were added to a polypropylene tube. Non-specific 3H-PDBu binding was assessed in triplicate by substitution

[2] = system: CD22 surface expression in NALM6 cells; test: CD22 surface expression in NALM6 cells (flow cytometry); type: cell-based, human
Experimental: CD22 Surface Expression Protocol – NALM6 Cells […]
unless otherwise noted below) at 37 ° C in an incubator (5% CO2). Cell cultures were maintained […]
Cell suspension from a confluent T75 flask (Fisher) was transferred to a 15 mL falcon tube and centrifuged at 1100 rpm for 7 minutes. The supernatant was aspirated, and the cell pellet was […]
Cells were counted using a Countess II Automated Cell
199 µL of this stock was added to 24 wells (enough for triplicate measurements for 8 different experimental conditions) in a 96-well plate. Dosing was […]
each experiment. 1 µL of DMSO or the appropriate stock solution of compound in DMSO was added to each well. Cells were incubated for 24 hours, at which point the cell suspensions were transferred to 1.5 mL Eppendorf tubes and diluted with 1.0 mL of PBS (Hyclone, without Ca2+ or Mg2+). Samples were centrifuged at 2000 rpm for 5 min at RT. The supernatant was aspirated, […]
Cells were sub-cultured between 2 […]
surface expression was assayed by flow cytometry.
Cells from one well were counted using a Countess II Automated Cell Counter (Fisher). ~200,000 – 300,000 cells from each well were added to 1.5 mL Eppendorf tubes containing PBS (final volume ~1.2 mL). The cell suspensions were centrifuged at 1500 rpm for 7 minutes at 4 °C. The supernatant was aspirated, and the cell pellet was resuspended in 99 µL of pre-chilled FACS […]
buffer (0.5% w/v BSA in PBS). […]
minutes. Samples were then diluted with an additional 1.0 mL of FACS buffer and centrifuged at 1500 rpm for 7 minutes at 4 °C. The supernatant was aspirated, the cell pellets were resuspended in 200 µL FACS buffer, and the resulting suspensions were transferred to FACS tubes (Fisher, […]
Cells were stained with DAPI and CD22 surface expression was analyzed using the FACScan Analyzer at the Stanford Shared FACS Facility. Data analysis was performed using FlowJo and Microsoft Excel.

PKC = PKC competitive binding assay, isoform not specified; design: species or system human
Experimental: as §1, §2, §3, §4, §5, §6, §7, §8, §9, §10, §11, §12, §13, §14, §15, §16
- Glass-fiber filters (Whatman GF/B) were prepared by soaking them in a solution of […]

[3] = system: CD22 surface expression in 2F7 cells; test: CD22 surface expression in 2F7 cells (flow cytometry); details: 1 nM or 10 nM, 48 h, n = 6
Experimental: as §19, §20, §21, §22, §23, §24, §25, §26, §27, §28, §29, §30, §31, §32

PKCδ-GFP fusion protein = biological target: T2, PKCδ-GFP fusion protein (Homo sapiens, UniProt Q05655); test: PKCδ-GFP translocation assay in living CHO-k1 cells (confocal microscopy); type: cell-based, Chinese hamster; details: for Emax at 1 µM: CHO-K1, 1000 nM compound; for minimum effective concentration required to induce translocation of PKC-GFP to the membrane: tested at 200 and 1000 nM
T2 construct: expressed in transfected cells; host or cells: CHO-k1 (Chinese hamster ovary, ATCC)
T2 sequence (Q05655 whole entry, the tested form may be a part): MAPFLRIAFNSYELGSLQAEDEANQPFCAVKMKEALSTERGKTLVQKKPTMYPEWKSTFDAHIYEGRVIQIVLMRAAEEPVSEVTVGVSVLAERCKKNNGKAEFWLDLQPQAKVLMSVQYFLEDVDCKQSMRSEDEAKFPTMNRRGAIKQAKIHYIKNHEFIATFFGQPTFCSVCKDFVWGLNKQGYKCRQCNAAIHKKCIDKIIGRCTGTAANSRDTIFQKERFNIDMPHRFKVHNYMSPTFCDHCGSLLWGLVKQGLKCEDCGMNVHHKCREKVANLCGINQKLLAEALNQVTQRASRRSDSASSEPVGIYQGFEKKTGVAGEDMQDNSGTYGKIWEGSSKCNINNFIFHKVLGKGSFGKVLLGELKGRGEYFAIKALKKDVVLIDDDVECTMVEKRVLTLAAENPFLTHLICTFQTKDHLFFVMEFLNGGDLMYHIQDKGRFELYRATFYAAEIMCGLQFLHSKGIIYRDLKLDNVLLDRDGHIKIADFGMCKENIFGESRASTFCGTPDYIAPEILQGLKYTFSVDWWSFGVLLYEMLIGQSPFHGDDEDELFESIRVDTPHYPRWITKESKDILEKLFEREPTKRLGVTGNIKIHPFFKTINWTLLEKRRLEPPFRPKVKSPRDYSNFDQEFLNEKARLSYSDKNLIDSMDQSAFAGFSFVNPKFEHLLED
Experimental: as §1
Scale bar represents 25 μm. Experiments performed in n = 3 biological replicates. b–d Cytosolic fluorescence normalized to t = 0 (time immediately prior to addition of compound to media) and plotted against time. Error bars excluded for clarity (data presented as the mean of n = 3 biological replicates). Individual curves with error bars included in Supplementary Information.
PKCδ-GFP Translocation Assay Protocol
Chinese hamster ovary factor K1 (CHO-k1, ATCC) cells were cultured in F-12 Kaighn’s media (Hyclone, 10% fetal bovine serum, 1% penicillin/streptomycin added, reffered to as F-12 +/+ below) at 37 ° C in an incubator (5% CO2). Cell cultures were maintained by splitting cells 1:3 when they reached ~75-100% confluence (every 2-3 days) as follows:
(Gibco) was used to remove the cells from the culture flask (T75, Falcon). 1 mL of the cell suspension was then added to 9 mL of fresh F-12 +/+ and the sample was sub-cultured until reaching confluence (~2-3 days).
Cells were counted using a Countess II Automated Cell Counter (Fisher). The cell suspension was diluted to 240,000 cells/mL with fresh F-12 +/+ and 2.5 mL of this diluted stock was added to one well in a 6-well plate. The cells were then cultured for 24 hours.
Cells were transfected with Lipofectamine 2000 reagent (Invitrogen) or DA 13:11 at a 10:1 charge […]
F-12 +/+ was aspirated and cells were washed with F-12 -/-. 2 mL of fresh F-12 -/- was then added to each well, taking care not to disturb adherent cells. For each well of CHO-k1 cells, 12.5 µL Lipofectamine 2000 reagent (Invitrogen) was added to 250 µL Opti-MEM reduced serum media (Invitrogen) in a polypropylene tube and incubated for 20 minutes at RT. Meanwhile, for each well, 4 µg of PKCδ-GFP pDNA and 250 µL Opti-MEM reduced serum media was added to a separate polypropylene tube. 250 µL of the Lipofectamine 2000 suspension was added to the DNA suspension and the solution incubated for 30 minutes at RT. 500 µL of the Lipofectamine/DNA suspension was added to the respective wells of the 6-well plate. The cells were then incubated at 37 ° C (5% CO2) for ~24 hrs.
F-12 +/+ was aspirated and cells were washed with F-12 -/-. 2.4 mL of fresh F-12 -/- was then added to each well, taking care not to disturb adherent cells. A 4 µg aliquot of PKCδ-GFP pDNA was added to PBS (pH 5.5, final volume 100 µL). 5.6 µL of DA 13:11 (2 mM stock in DMSO) was then added to the DNA solution, and the mixture was gently mixed (by flicking) for 20 seconds, at which point it was added directly to the respective wells of the 6-well plate.

PKCδ = biological target: T3, PKCδ (Homo sapiens, UniProt Q05655); test: PKC competitive binding assay with [3H]-phorbol dibutyrate (PKCδ); details: cell-free, competition with [3H]-PDBu, PS vesicles
T3 construct: purchased Invitrogen
T3 sequence (Q05655 whole entry): as the sequence (Q05655 whole entry, the tested form may be a part) above
Experimental: as §1, §2, §3, §4, §5, §6, §7, §8, §9
Assay PKC was prepared by dissolving a 4 μg aliquot of the indicated recombinant human PKC isoform (Invitrogen) into 11.6 mL of PKC binding assay buffer (this amount is sufficient for two assays). The diluted PKC was stored on ice for immediate use. […]
μCi/mmol) was diluted 10-fold with DMSO. The resulting 500 nM stock solution was further diluted with DMSO to 30 nM.
as §13, §14, §15, §16, §17, §18
Triplicate data points were obtained for each analog concentration. For each data point, 280 μL of "Master Mix" Solution and 20 μL of analog compound at a specified concentration were added to a polypropylene tube. Non-specific 3H-PDBu binding was assessed in triplicate by substitution […]
μM). Maximal 3H-PDBu binding was assessed in triplicate by substitution of the analog compound with 20 μL DMSO. The solutions were vortexed to mix, incubated at 37 °C for 10 min, and […]

[4] = cell-free, competition with [3H]-PDBu, PS vesicles, read-out: Ki PKCα
[5] = CHO-k1 cells, n = 3, read-out: % Translocation (maximum translocation of PKCδ-GFP to the plasma membrane)

Structure (SMILES) | upregulation of CD22 surface expression [1] | upregulation of CD22 surface expression [3] | Ki (PKCα; [4]) [nM] | Emax at 1 µM (PKCδ-GFP fusion protein; [5]) [%] | minimum effective concentration required to induce translocation of PKC-GFP to the membrane (PKCδ-GFP fusion protein; CHO-k1 cells) [nM] | Ki (PKCδ) [nM] | further results
CCC/C=C/C=C/C(=O)O[C@H]1/C(=C/C(=O)OC)C[C@H]2C[C@H]([C@@H](C)O)OC(=O)C[C@H](O)C[C@@H]3C[C@H](OC(C)=O)C(C)(C)[C@](O)(C[C@@H]4C/C(=C/C(=O)OC)C[C@H](/C=C/C(C)(C)[C@]1(O)O2)O4)O3 [Bryostatin 1, reference compound] | ~ 2 fold | ~ 2 fold | – | – | – | – | Ki (PKCα): 0.8 nM; duration of sustained increase in CD22 surface expression following treatment ([2]; NALM6 cells, 10 nM for 24 h, then washout and sub-culture): up to 7 days; increase in CD22 surface density ([2]; NALM6 cells, 24 h incubation, Fig. 6): > 2 fold; PKC binding affinity in words (PKC; conventional and novel PKC isoforms): single-digit nanomolar
CCCC=CC=CC(=O)OC1C(=CC(=O)OC)CC2CC(C(C)O)OC(=O)CC(O)CC3CC(OC(C)=O)C(C)(C)C(O)(CC4CC(=CC(=O)OC)CC(C=CC(C)(C)C1(O)O2)O4)O3 (centres unmarked) [SUW201] | ~ 2 fold | ~ 2 fold | – | – | – | – | Ki (PKCα; read-out: Ki PKCα, cell-free, competition with [3H]-PDBu, PS vesicles): 0.54 nM
CCCC=CC=CC(=O)OC1C(=CC(=O)OC)CC2CC(C(C)O)OC(=O)CC(O)CC3CC(OC(C)=O)C(C)(C)C(O)(CC4CC(OC(=O)CN(C)C)CC(C=CC(C)(C)C1(O)O2)O4)O3 (centres unmarked) [SUW212] | – | – | 40 | 50 | 1000 | 24 | sustained translocation of PKC (PKCδ-GFP fusion protein; at up to 1000 nM): did not achieve sustained translocation of PKC; decrease in affinity to PKC (PKC; charged substituents at C13, Table 1 data): 20-100 fold
CCCC=CC=CC(=O)OC1C(=CC(=O)OC)CC2CC(C(C)O)OC(=O)CC(O)CC3CC(OC(C)=O)C(C)(C)C(O)(CC4CC(=CC(=O)OCc5ccccc5)CC(C=CC(C)(C)C1(O)O2)O4)O3 (centres unmarked) [SUW219] | – | – | 37 | 60 | 1000 | 25 | decrease in affinity to PKC (PKC; benzyl enoates, (Z) olefin geometry, comparator not stated): ~ 2 fold
C=CCOC(=O)/C=C1/C[C@H]2C[C@]3(O)O[C@H](C[C@@H](O)CC(=O)O[C@@H]([C@@H](C)O)C[C@@H]4C/C(=C\C(=O)OC)[C@H](OC(=O)/C=C/C=C/CCC)[C@@](O)(O4)C(C)(C)/C=C/[C@@H](C1)O2)C[C@H](OC(C)=O)C3(C)C [SUW229] | ~ 2 fold | ~ 2 fold | – | – | 200 | – | fold induction at 0.001 µM ([2]; Homo sapiens, NALM-6, 24 h, NALM6 cells at 1 nM relative to DMSO control, 24 h incubation, washout, 24 h sub-culture, n = 3, read-out: Fold increase CD22 expression): 2.35; Emax at 0.2 µM (PKCδ-GFP fusion protein; CHO-K1, 200 nM compound, CHO-k1 cells, n = 3, read-out: % Translocation (maximum translocation of PKCδ-GFP to the plasma membrane)): 50%; PKC activation dynamics (shape of translocation curve) (PKCδ-GFP fusion protein; Fig. 5c, d): more sustained linear activation dynamics
